The source of these data is US11628144B2, “Iniparib formulations and uses thereof” (TriAct Therapeutics, Inc., priority 2017, dated 2023).

Each structure is given as a SMILES string. ≈ marks a conversion by molar mass, not a printed value.

Series [1] deals with cancer cells, including drug resistant cell lines. As to conditions: cited from earlier work.
Series [2] concerns the target poly [ADP-ribose] polymerase 1 (PARP1) (Homo sapiens, UniProt P09874). The conditions noted are these: observed in several studies; cited from earlier work.
The conditions of series [3]: tissues including brain and cerebrospinal fluid (CSF); cited from earlier work.
The nature of series [4]: Solubility of iniparib in purified water. Format: physicochemical.

poly [ADP-ribose] polymerase 1 (PARP1), sequence (P09874 whole entry, species assumed): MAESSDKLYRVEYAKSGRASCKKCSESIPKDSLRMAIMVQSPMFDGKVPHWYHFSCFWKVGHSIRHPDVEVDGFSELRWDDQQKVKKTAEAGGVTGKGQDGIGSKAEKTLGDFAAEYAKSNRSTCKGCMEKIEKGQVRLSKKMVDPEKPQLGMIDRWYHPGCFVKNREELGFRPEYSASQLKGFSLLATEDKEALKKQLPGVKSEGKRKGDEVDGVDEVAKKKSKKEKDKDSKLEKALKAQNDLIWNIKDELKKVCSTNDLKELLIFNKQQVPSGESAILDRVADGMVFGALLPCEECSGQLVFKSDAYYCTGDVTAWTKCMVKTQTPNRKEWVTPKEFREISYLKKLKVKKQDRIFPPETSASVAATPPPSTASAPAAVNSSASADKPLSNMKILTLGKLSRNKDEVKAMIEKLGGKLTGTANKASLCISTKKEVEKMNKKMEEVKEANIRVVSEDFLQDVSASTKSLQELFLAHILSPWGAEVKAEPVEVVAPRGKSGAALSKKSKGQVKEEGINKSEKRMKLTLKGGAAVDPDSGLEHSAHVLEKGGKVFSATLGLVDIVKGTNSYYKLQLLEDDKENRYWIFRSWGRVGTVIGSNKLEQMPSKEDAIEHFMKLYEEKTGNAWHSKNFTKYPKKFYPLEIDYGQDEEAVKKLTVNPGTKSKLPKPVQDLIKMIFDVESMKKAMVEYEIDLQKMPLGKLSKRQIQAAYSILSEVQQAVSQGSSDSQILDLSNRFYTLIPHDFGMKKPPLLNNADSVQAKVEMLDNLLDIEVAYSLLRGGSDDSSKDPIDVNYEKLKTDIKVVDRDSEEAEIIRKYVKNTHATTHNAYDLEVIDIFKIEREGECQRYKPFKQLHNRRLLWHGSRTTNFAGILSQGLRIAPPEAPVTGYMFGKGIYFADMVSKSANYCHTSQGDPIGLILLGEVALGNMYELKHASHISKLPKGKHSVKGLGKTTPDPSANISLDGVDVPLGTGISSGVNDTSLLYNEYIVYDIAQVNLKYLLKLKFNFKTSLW

Turning to `NC(=O)c1ccc(I)c([N+](=O)[O-])c1` [Iniparib, 4-iodo-3-nitrobenzamide], the “activity against cancer cells in vitro” value in series [1] is recorded as “active against a broad range of cancer cells in vitro”. Besides, the “potency against PARP1” value in series [2] is “low potency”. Moreover, the distribution into tissues entry in series [3] was “distributes rapidly and widely into tissues, including the brain and cerebrospinal fluid (CSF)”. Besides, the solubility – broadly, the dissolved amount per volume that the medium holds – in series [4] is ~182 µg/mL (≈ 623 µM).
